Legend:
[1] = system: hepatitis B virus transfected hepatoma cell lines, HepG 2.2.15 cells; test: Cytotoxicity assay, 2.2.15 cells; assay type: cell-based, human; conditions: Homo sapiens, HepG2.2.15; 48 h of drug exposure
rat glioma C6 cells = test: Cytotoxicity assay (XTT colorimetric), C6 cells; assay type: cell-based; conditions: Rattus norvegicus, C6; 48 h of drug exposure
human hepatoma G2 cells = test: Cytotoxicity assay (XTT colorimetric), Hep G2; assay type: cell-based; conditions: Homo sapiens, HepG2; 48 h of drug exposure
[2] = MTT relative viability, PhTERT-SEAP (hTERT-BJ1) cells; conditions: human
Experimental: The tetrazolium reagent (MTT; 3-(4,5-di-methylthiazol)-2,5-diphenyl tetrazolium bromide, USB) was designed to yield a colored formazan upon metabolic reduction by viable cells. Approximately […] cells were plated onto each well of a 96-well plate and incubated in 5% CO2 at 37° C. for 24 h. To assess the in vitro cytotoxicity, each compound was dissolved in DMSO and prepared immediately before the experiments and was diluted into the complete medium before addition to cell cultures. Test compounds were then added to the culture medium for designated various concentrations. After 48 h, an amount of 25 μL of MTT was added to each well, and the samples were incubated at 37° C. for 4 h. A 100 μL solution of lysis buffer containing 20% SDS and 50% N,N-dimethylformamide was added to each well and incubated at 37° C. for another 16 h. The absorbency at 550 nm was measured using an ELISA reader.
Non small lung cancer cells H1299 (telomerase positive) were grown in RPMI 1640 media supplemented with 10% fetal bovine serum, 100 units/mL penicillin and 100 mg/mL streptomycin in a humidified atmosphere with 5% CO2 at 37° C. The hTERT immortalized hTERT-BJ1 (BD Biosciences Clontech)^39 were grown in DMEM media supplemented with 10% fetal calf serum, 100 units/mL penicillin and 100 mg/mL streptomycin, 1 mM sodium pyruvate, and 4 mM I-arginine in a humidified atmosphere with 5% CO2 at 37° C. Culture media were changed every 3 days. […] The stable clones derived from H1299 or hTERT-BJ1 were cultured using conditions that are similar to their parental cells.

[3] = system: transcriptional activity of hTERT; test: SEAP reporter assay of hTERT expression, PhTERT-SEAP (hTERT-BJ1); assay type: cell-based, human; conditions: Homo sapiens, hTERT-BJ1, read-out: Relative SEAP activity (%)
In short: (§1)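 Cells seeded, grown 24 h at 37° C, refed, then exposed to varying drug amounts for another 24 h. Collected media heated 65° C for 10 min to kill heat-labile phosphatases, mixed with equal SEAP buffer (2 M diethanolamine, 1 mM MgCl2, 20 mM […]) plus 12 mM final p-nitrophenyl phosphate; rate of A405 increase measured.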

[4] = system: transcriptional activity of hTERT; test: SEAP reporter assay of hTERT expression, PhTERT-SEAP (H1299); assay type: cell-based, human
In short: as §1

[5] = MTT relative viability, PhTERT-SEAP (H1299) cells; conditions: human
[6] = system: iron-induced lipid peroxidation in rat brain homogenates; test: Iron-induced lipid peroxidation in rat brain homogenates; conditions: 10 mM

SMILES: NCCCCCNc1cccc2c1C(=O)c1cccc(NCCCCCN)c1C2=O [IVm, 1,5-Bis(aminopentylamino)-anthraquinone]
- IC50 [1]: > 20 µM
- IC50 (rat glioma C6 cells): 8.36 µM
- IC50 (human hepatoma G2 cells): 17.4 ± 0.74 µM
- melting point: 113 to 115 °C

SMILES: CCCCCCNc1cccc2c1C(=O)c1cccc(NCCCCCC)c1C2=O [IVn, 1,5-Bis(hexylamino)-anthraquinone]
- melting point: 142 to 144 °C

SMILES: CC1CCCC(Nc2cccc3c2C(=O)c2cccc(NC4CCCC(C)C4C)c2C3=O)C1C (stereo not shown) [IVp, 1,5-Bis(2,3-dimethylcyclohexylamino)-anthraquinone]
- melting point: 188 to 190 °C

SMILES: O=C1c2cccc(NCc3ccccc3)c2C(=O)c2cccc(NCc3ccccc3)c21 [IVr, 1,5-Bis(benzylamino)-anthraquinone]
- IC50 [1]: > 20 µM
- IC50 (rat glioma C6 cells): > 20 µM
- IC50 (human hepatoma G2 cells): > 20 µM
- melting point: 218 to 220 °C

SMILES: O=C1c2cccc(NCCc3ccccc3)c2C(=O)c2cccc(NCCc3ccccc3)c21 [IVs, 1,5-Bis(phenylethylamino)-anthraquinone]
- viability at 48 h, 2.2 µM [2]: 97 ± 4%
- viability at 48 h, 22 µM [2]: 92 ± 1%
- viability at 48 h, 223 µM [2]: 81 ± 4.7%
- activity at 2.2 µM ([3]; 2.2 μM): 115 ± 12.9%
- activity at 22 µM ([3]; 22 μM): 103 ± 12.3%
- activity at 223 µM ([3]; 223 μM): 133 ± 23.8%
- activity at 2.2 µM ([4]; Homo sapiens, NCI-H1299, 2.2 μM, hTERT-H1299, read-out: Relative SEAP activity (%)): 105 ± 3%
- activity at 22 µM ([4]; Homo sapiens, NCI-H1299, 22 μM, hTERT-H1299, read-out: Relative SEAP activity (%)): 103 ± 9.5%
- activity at 223 µM ([4]; Homo sapiens, NCI-H1299, 223 μM, hTERT-H1299, read-out: Relative SEAP activity (%)): 96 ± 2.9%
- IC50 [1]: > 20 µM
- IC50 (rat glioma C6 cells): > 20 µM
- viability at 48 h, 2.2 µM [5]: 94 ± 5.2%
- viability at 48 h, 22 µM [5]: 97 ± 3.2%
- viability at 48 h, 223 µM [5]: 77 ± 4.2%
- IC50 (human hepatoma G2 cells): > 20 µM
- melting point: 205 to 207 °C

SMILES: O=C1c2c(O)ccc(O)c2C(=O)c2c(NCCNCCO)ccc(NCCNCCO)c21 [Mitoxantrone, reference compound]
- viability at 48 h, 1.9 µM [2]: 75 ± 2.9%
- viability at 48 h, 19 µM [2]: 56 ± 3.1%
- viability at 48 h, 193 µM [2]: 10 ± 2%
- activity at 1.9 µM ([3]; 1.9 μM): 30 ± 5.8%
- activity at 19 µM ([3]; 19 μM): 13 ± 9.2%
- activity at 193 µM ([3]; 193 μM): 4 ± 14.2%
- SEAP/vibility ([4]; 1.9 μM, PhTERT-SEAP(hTERT-H1299)): 0.82
- SEAP/vibility ([4]; 19 μM, PhTERT-SEAP(hTERT-H1299)): 1.16
- SEAP/vibility ([4]; 193 μM, PhTERT-SEAP(hTERT-H1299)): 1.21
- activity at 1.9 µM ([4]; Homo sapiens, NCI-H1299, 1.9 μM, PhTERT-SEAP(hTERT-H1299), read-out: Relative SEAP activity (%)): 81 ± 3.8%
- activity at 19 µM ([4]; Homo sapiens, NCI-H1299, 19 μM, PhTERT-SEAP(hTERT-H1299), read-out: Relative SEAP activity (%)): 66 ± 4%
- activity at 193 µM ([4]; Homo sapiens, NCI-H1299, 193 μM, PhTERT-SEAP(hTERT-H1299), read-out: Relative SEAP activity (%)): 47 ± 3.9%
- Inhibition of LP(10 mM) ([6]; mean percent inhibition (Table 3)): >100%
- LP (%) (10 mM) ([6]; relative percentage of inhibition (Table 1)): 54 ± 1.5%
- IC50 [1]: 0.4 µM
- IC50 (rat glioma C6 cells): 0.07 ± 0.01 µM
- viability at 48 h, 1.9 µM [5]: 100 ± 5.6%
- viability at 48 h, 19 µM [5]: 57 ± 4.3%
- viability at 48 h, 193 µM [5]: 39 ± 3.2%
- IC50 (human hepatoma G2 cells): 2 ± 0.5 µM

SMILES: CCC(=O)Nc1cccc2c1C(=O)c1cccc(NC(=O)CC)c1C2=O [VIIb, 1,5-bis-(methylacetamido)-9,10-anthracenedione]
- melting point: 321 °C

SMILES: CC(Cl)C(=O)Nc1cccc2c1C(=O)c1cccc(NC(=O)C(C)Cl)c1C2=O (stereo not shown) [VIId, 1,5-bis-(2-chloropropionamido)-9,10-anthracenedione]
- melting point: 288 to 289 °C

SMILES: NCCCCCNc1cccc2c1C(=O)c1c(NCCCCCN)cccc1C2=O [Vm, 1,8-Bis(aminopentylamino)-anthraquinone]
- IC50 [1]: 1.29 µM
- IC50 (rat glioma C6 cells): 0.11 ± 0.01 µM
- IC50 (human hepatoma G2 cells): 0.09 µM
- melting point: 115 to 116 °C
